From US5510240A, “Method of screening a peptide library” (The Arizona Board of Regents, priority 1993, dated 1996)
Where no end group is shown, it is not given here.

Experiments:
[1] = target: T1, streptavidin (Streptomyces avidinii, UniProt P22629); test: biotin inhibition of LHPQF-resin staining by streptavidin-alkaline phosphatase; format: binding
T1 construct: purchased Pierce, Rockford, Ill
Description: FIG. 8. […] A: 100 nM; B: 10 nM; C: 1 nM; and D: 0.1 nM biotin. Blank beads (β-Ala-aminocaproic acid-resin) were mixed 1:1 with the LHPQF-resin prior to incubating with streptavidin-alkaline phosphatase to serve as an internal negative control.
The LHPQF-resin was then mixed with streptavidin-alkaline phosphatase in the presence of varying concentration of biotin. […] The inhibition study establishes that the HPQ consensus sequence binds to the biotin-binding site of streptavidin.

[2] = UV/VIS irradiation cleavage of ONb linker peptides, HPLC analysis; format: physicochemical; settings: in water
Description: Each peptide was irradiated for 1 and 3 hours with ultraviolet (UV) and visible (VIS) light in 0.3 ml of water or 3/7 mixture of chloroethanol:dichloromethane. A total of 16+16 experiments were run and assayed.
After exposure the supernatant was filtered off, lyophilized and re-dissolved to equal volumes of MeOH (0.3 ml). The products were analyzed on the HPLC.

[3] = tested on: anti-v-mos; settings: known property of the commercial antibody; cited from earlier work
[4] = tested on: anti-v-mos monoclonal antibody; test: bead staining with anti-v-mos monoclonal antibody; format: binding, mouse; settings: antibody 1 ug/ml; ABTS substrate with H2O2, 15 minutes
Description: The long v-mos beads were mixed with a thousand fold excess of the short v-mos beads. Two milliliters of the purified anti-v-mos monoclonal antibody (1 μg/ml) in PBS with 0.1% polyoxyethylenesorbitan monolaurate (TWEEN 20®) was added to the mixture of long and short v-mos beads and incubated at room temperature for one hour with gentle mixing. The beads were then washed for one hour with gentle mixing. The beads were then washed on a small polypropylene disposable column (obtained from Isolab) where the beads were retained by the frit. The beads were then mixed with 2 ml of a secondary antibody at 1:2000 dilution for one hour. After washing, the beads were poured into a polystyrene petri dish and allowed to settle. […]
The beads were washed on a small polypropylene disposable column (obtained from Isolab) which retained the beads on a frit. […] The v-mos beads were readily distinguished.
Approximately 230,000 beads were screened with an anti-v-mos alkaline phosphatase conjugate. […] Twenty-four of these beads were physically selected out and the amino acid sequence of eleven of them was determined. […]

[5] = peptide-bead reduction of nitro blue tetrazolium without exogenous enzyme; format: biochemical; settings: absence of exogenous enzyme
Excerpt: The peptide library was exposed to the chromogenic substrate nitro blue tetrazolium (NBT) chloride in the absence of exogeneous enzyme under conditions conducive to product formation, and positive reacting beads were identified. These beads were selected and sequenced.

[6] = tested on: anti-β-endorphin MAb; test: bead library screening with biotinylated anti-β-endorphin MAb and streptavidin-alkaline phosphatase; format: binding; settings: recycled pentapeptide library, 16 hours
Description: Prior to using the same random peptide library to screen with anti-β-endorphin MAb, all the blue beads that had stained for streptavidin-alkaline phosphatase alone were removed. The remaining beads were then treated with 8M guanidine hydrochloride to remove any bound protein. This recycled library was then mixed with biotinylated anti-β-endorphin MAb (anti-β-endorphin, clone 3-E7, was obtained commercially from Boehringer Mannheim, Indianapolis, Ind.) for 16 hours. After extensive washing, a secondary step with streptavidin-alkaline phosphatase was used to trigger the staining reaction for the ELISA. […] Peptide analogues with various carboxyl terminus of these ligand leads were synthesized and their affinity (Ki) was determined using ^3 H!Leu-enkaphalin (New England Nuclear, Boston, Mass.) as the labelled ligand and the unlabelled peptides as the competing ligand (anti-β-endorphin assay, Section 10.1.2, supra).

T1 sequence (P22629 25-183, species assumed): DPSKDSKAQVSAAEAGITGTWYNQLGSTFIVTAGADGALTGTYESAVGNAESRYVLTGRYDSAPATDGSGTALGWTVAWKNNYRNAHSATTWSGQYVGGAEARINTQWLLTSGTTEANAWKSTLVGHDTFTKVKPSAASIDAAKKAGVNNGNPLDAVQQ

## O=C(O)CCCC[C@@H]1SC[C@@H]2NC(=O)N[C@@H]21 [biotin]
[1]; FIG. 8, 100, 10, 1 and 0.1 nM biotin
  effect on the staining of LHPQF-resin mimotope beads by streptavidin-alkaline phosphatase: concentration-dependent inhibitory effect
[1]; biotin at 0.1 nM
  staining of the LHPQF-resin: no effect
[1]; biotin at 1.0 nM
  staining of the LHPQF-resin: partially inhibited
[1]; biotin at 10 nM
  staining of the LHPQF-resin: partially inhibited
[1]; biotin at 100 nM
  staining of the LHPQF-resin: completely blocked

## Fmoc-Trp-Tyr(OBu^t)-Phe-ONb-βAla-ACA-EDA-PepSyn K (WYFX; Fmoc, OBut, ONb-βAla-ACA-EDA-PepSyn K resin linkage) [peptide i]
[2]
  cleavage products: cleaved to a single product

## GSVYKA [short v-mos peptide]
[3]
  affinity of anti-v-mos antibody: negligible affinity

## Gly-Phe-Gly-Ser-Val-Tyr-aminocaproic acid-β-Ala-resin [PAM resin/v-mos peptide beads]
[4]
  bead color after anti-v-mos antibody and labelled secondary antibody: turned dark green

## PNNNH (also: bead-bound) [PNNNH-bead]
[5]
  reduction of NBT to dark blue diformazan: capable of reducing NBT to a dark blue diformazan pigment

## YGGFA (not fully specified) [tested with carboxyl terminus OH, NH2, βA-OH, βA-NH2]
[6]
  identification as ligand in anti-β-endorphin MAb bead screening: identified

## YGGFQ (not fully specified) [tested with carboxyl terminus OH, NH2, βA-OH, βA-NH2]
[6]
  identification as ligand in anti-β-endorphin MAb bead screening: identified

## YGGFT (not fully specified) [tested with carboxyl terminus OH, NH2, βA-OH, βA-NH2]
[6]
  identification as ligand in anti-β-endorphin MAb bead screening: identified

## YGGLQ (not fully specified) [tested with carboxyl terminus OH, NH2, βA-OH, βA-NH2]
[6]
  identification as ligand in anti-β-endorphin MAb bead screening: identified

## YGGLS (not fully specified) [tested with carboxyl terminus OH, NH2, βA-OH, βA-NH2]
[6]
  identification as ligand in anti-β-endorphin MAb bead screening: identified

## YGGMV (not fully specified) [tested with carboxyl terminus OH, NH2, βA-OH, βA-NH2]
[6]
  identification as ligand in anti-β-endorphin MAb bead screening: identified
